#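 Tested at 5 concentrations; 48 h exposure; 96-well plates; endpoints linearly interpolated, else capped at highest concentration. The concentration for full growth arrest is given as TGI.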
# What was measured:
# Experiment in all cases: NCI-60 cell line screen, 48 h
# [1] = system: UACC-257 melanoma
# [2] = system: 786-0 renal
# [3] = system: HT29 colon
# [4] = system: UO-31 renal
# [5] = system: LOX IMVI melanoma
# [6] = system: T-47D breast
# [7] = system: A549 NSCLC
# [8] = system: TK-10 renal
# [9] = system: NCI-H226 lung
# [10] = system: CAKI-1 renal
# [11] = system: HOP-92 NSCLC
SMILES,TGI [1],TGI [2],TGI [3],TGI [4],TGI [5],TGI [6],TGI [7],TGI [8],TGI [9],TGI [10],TGI [11]
COC(CN(C)C(=S)Nc1cccc2ccccc12)OC,> 10 µM,> 10 µM,> 10 µM,> 10 µM,> 10 µM,> 10 µM,> 10 µM,> 10 µM,> 10 µM,> 10 µM,
Cc1cc(N(CCC#N)CCC#N)ccc1/C(N=Nc1ccccc1)=N\NC(=O)c1cc(Cl)ccc1O,40.5 µM,70.3 µM,35.4 µM,41.3 µM,,55.9 µM,> 100 µM,52.2 µM,> 100 µM,> 100 µM,
CSc1nncc(-c2cc3c(c(SC)n2)CCCC3)n1,> 100 µM,> 100 µM,> 100 µM,> 100 µM,,,> 100 µM,> 100 µM,> 100 µM,> 100 µM,
CC1(C)O[C@@H]2[C@@H](COC(C)(C)O[C@H]2C2SCCCS2)O1,,> 100 µM,> 100 µM,> 100 µM,,> 100 µM,> 100 µM,,,> 100 µM,> 100 µM
CC(C)(CN1CCCCC1)C(=O)/C=C/c1ccc(Br)cc1,20.3 µM,4.72 µM,12.6 µM,> 24.7 µM,4.63 µM,,7.9 µM,10.2 µM,15.7 µM,3.71 µM,4.1 µM
CC(=O)c1ccc(N=NN2CCCC2)cc1,> 100 µM,> 100 µM,,> 100 µM,> 100 µM,> 100 µM,,> 100 µM,> 100 µM,> 100 µM,> 100 µM
CCOc1cnc(C(O)(c2ccccc2)c2ccccc2)o1,> 100 µM,> 100 µM,> 100 µM,> 100 µM,> 100 µM,> 100 µM,> 100 µM,,> 100 µM,> 100 µM,> 100 µM
O=C1CC(c2ccc(Cl)cc2)=Nc2ccccc2N1,> 100 µM,> 100 µM,> 100 µM,> 100 µM,58.8 µM,,> 100 µM,> 100 µM,> 100 µM,> 100 µM,71.1 µM
O=C1CC(O)c2cscc21 (stereo not drawn),> 100 µM,> 100 µM,> 100 µM,,> 100 µM,> 100 µM,,> 100 µM,> 100 µM,> 100 µM,> 100 µM
CC(=O)NC1C(OCC(=O)NCCNc2ccc([N+](=O)[O-])c3[nH]c4ccccc4c(=O)c23)C(O)C(CO)OC1(C)OCc1ccccc1 (stereo not drawn),> 100 µM,> 100 µM,> 100 µM,> 100 µM,> 100 µM,> 100 µM,> 100 µM,> 100 µM,> 100 µM,> 100 µM,
COC(=O)[C@@]12OC[C@]34C([C@@H](O)C1O)[C@@]1(C)CC(=O)C(OC(=O)CC(C)C(F)(F)F)=C(C)C1C[C@H]3OC(=O)[C@H](O)[C@H]42 (stereo partly drawn),35.3 µM,38.5 µM,> 62.5 µM,> 62.5 µM,,,> 62.5 µM,> 62.5 µM,14.5 µM,> 62.5 µM,23.1 µM
CCOC(=O)c1cn(CC)c(=O)n2c1nc1ccccc12,> 100 µM,> 100 µM,> 100 µM,10.2 µM,84.1 µM,> 100 µM,> 100 µM,,> 100 µM,> 100 µM,> 100 µM
NNC(=O)C(=O)NN=C(C(Cl)(Cl)CO)C(Cl)(Cl)CO,> 100 µM,> 100 µM,> 100 µM,> 100 µM,35.3 µM,,> 100 µM,> 100 µM,> 100 µM,97.4 µM,83.7 µM
CC(C)(C)OC(=O)N(CCCCNC(=O)C(F)(F)F)CCCNC(=O)C(F)(F)F,> 100 µM,> 100 µM,> 100 µM,> 100 µM,,> 100 µM,> 100 µM,> 100 µM,> 100 µM,> 100 µM,> 100 µM
O=C(Nn1c(-c2ccccc2)nc2ccccc2c1=O)c1ccc(Cl)cc1,> 100 µM,> 100 µM,> 100 µM,> 100 µM,> 100 µM,> 100 µM,> 100 µM,> 100 µM,> 100 µM,,> 100 µM
Cc1[nH]n(-c2nc3c(c(=O)[nH]2)CCCC3)c(=O)c1CCO,> 100 µM,> 100 µM,> 100 µM,> 100 µM,> 100 µM,> 100 µM,> 100 µM,> 100 µM,> 100 µM,> 100 µM,
COc1ccc(-c2c(C3=NCCCN3)nnn2-c2ccccc2)cc1,> 100 µM,> 100 µM,> 100 µM,> 100 µM,> 100 µM,,> 100 µM,> 100 µM,> 100 µM,> 100 µM,> 100 µM
C1CSCCSCCCS[C@@H]2CCCCC2SC1 (stereo partly drawn),> 100 µM,> 100 µM,> 100 µM,> 100 µM,> 100 µM,,> 100 µM,> 100 µM,> 100 µM,> 100 µM,> 100 µM
Cc1cc2nc3c(C#N)c(-c4ccccc4)/c(=C\Nc4ccc(F)cc4)c(=O)n3c2cc1C,> 100 µM,> 100 µM,,> 100 µM,> 100 µM,> 100 µM,> 100 µM,> 100 µM,> 100 µM,> 100 µM,
Cc1cc(O)c(/C=N/C(N)=S)c(=O)o1,> 100 µM,> 100 µM,,> 100 µM,,,> 100 µM,90.5 µM,> 100 µM,> 100 µM,> 100 µM
CCOC(=O)/C(=C/c1ccccn1)C(=O)c1ccccc1,27.9 µM,25.9 µM,30.4 µM,30 µM,6.94 µM,,44.5 µM,32.3 µM,31.8 µM,27.9 µM,21.1 µM
Cc1nc2sc3cccc(Cl)c3n2c(=O)c1N=Nc1ccc(Cl)cc1,> 100 µM,> 100 µM,> 100 µM,,> 100 µM,> 100 µM,> 100 µM,> 100 µM,> 100 µM,> 100 µM,> 100 µM

# — PubChem BioAssay (NCI)
